# ChEMBL document CHEMBL1201862, “PubChem BioAssay data set” (2004)
# Active and inactive are the calls of the source.
# Legend:
# Fatty acid synthase [1] = target: T1, Fatty acid synthase (Homo sapiens, UniProt P49327); test: inhibition of human FAS-TE enzyme activity – biochemical, kinetic fluorescence intensity, dose response (AID 624326); type: functional;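 also: rate of fluorescence rise from hydrolysis of a fluorogenic O-methyl fluorescein ester substrate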
# Fatty acid synthase [2] = target: T1, Fatty acid synthase; test: inhibition of human FAS-TE enzyme activity – biochemical, endpoint fluorescence intensity, uHTS hits, dose response (AID 624327); type: functional;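 also: fluorescence from hydrolysis of an O-methyl fluorescein acyl ester substrate by the enzyme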
# [3] = target: T2, Heat shock factor protein 1 (Mus musculus, UniProt P38532); test: enhancement of HSF1-driven luciferase signal – cell-based, NIH3T3, luminescence, dose retest, confirmation (AID 435004); type: functional;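 also: stress induced by proteasome inhibitor MG132 added 30 min after compound; luciferase reporter driven by HSF1 response element in NIH3T3 cells; actives raise luminescence as potentiators of the MG132 stress response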
# T2 sequence (P38532 whole entry): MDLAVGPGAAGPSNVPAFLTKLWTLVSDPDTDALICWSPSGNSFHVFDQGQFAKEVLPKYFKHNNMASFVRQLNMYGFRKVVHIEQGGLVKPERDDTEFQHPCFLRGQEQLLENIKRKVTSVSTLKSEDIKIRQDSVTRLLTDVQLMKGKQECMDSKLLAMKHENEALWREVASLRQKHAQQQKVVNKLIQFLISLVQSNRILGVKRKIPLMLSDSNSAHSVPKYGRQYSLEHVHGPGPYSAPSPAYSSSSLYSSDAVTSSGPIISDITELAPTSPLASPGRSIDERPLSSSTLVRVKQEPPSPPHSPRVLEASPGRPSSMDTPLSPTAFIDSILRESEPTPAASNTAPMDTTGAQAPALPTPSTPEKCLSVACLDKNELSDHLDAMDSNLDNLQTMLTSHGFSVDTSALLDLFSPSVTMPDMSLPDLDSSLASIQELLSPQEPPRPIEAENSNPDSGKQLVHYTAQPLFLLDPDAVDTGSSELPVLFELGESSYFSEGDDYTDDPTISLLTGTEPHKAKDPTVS
# [4] = NIH3T3 cell viability loss – ATP luminescence, mouse fibroblasts, counter-screen, dose response (AID 2010); type: functional, cell-based;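 also: cells exposed to compound for about 90 hours before reading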
# [5] = target: T3, Short transient receptor potential channel 4 (Mus musculus, UniProt Q9QUQ5); test: block of DAMGO-driven TRPC4 calcium entry – cell-based, HEK293 TRPC4/mu-opioid, Fluo-4 calcium, dose response (AID 434942); type: functional;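 also: potency of inhibitors blocking the TRPC4 calcium response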
# T3 sequence (Q9QUQ5 whole entry): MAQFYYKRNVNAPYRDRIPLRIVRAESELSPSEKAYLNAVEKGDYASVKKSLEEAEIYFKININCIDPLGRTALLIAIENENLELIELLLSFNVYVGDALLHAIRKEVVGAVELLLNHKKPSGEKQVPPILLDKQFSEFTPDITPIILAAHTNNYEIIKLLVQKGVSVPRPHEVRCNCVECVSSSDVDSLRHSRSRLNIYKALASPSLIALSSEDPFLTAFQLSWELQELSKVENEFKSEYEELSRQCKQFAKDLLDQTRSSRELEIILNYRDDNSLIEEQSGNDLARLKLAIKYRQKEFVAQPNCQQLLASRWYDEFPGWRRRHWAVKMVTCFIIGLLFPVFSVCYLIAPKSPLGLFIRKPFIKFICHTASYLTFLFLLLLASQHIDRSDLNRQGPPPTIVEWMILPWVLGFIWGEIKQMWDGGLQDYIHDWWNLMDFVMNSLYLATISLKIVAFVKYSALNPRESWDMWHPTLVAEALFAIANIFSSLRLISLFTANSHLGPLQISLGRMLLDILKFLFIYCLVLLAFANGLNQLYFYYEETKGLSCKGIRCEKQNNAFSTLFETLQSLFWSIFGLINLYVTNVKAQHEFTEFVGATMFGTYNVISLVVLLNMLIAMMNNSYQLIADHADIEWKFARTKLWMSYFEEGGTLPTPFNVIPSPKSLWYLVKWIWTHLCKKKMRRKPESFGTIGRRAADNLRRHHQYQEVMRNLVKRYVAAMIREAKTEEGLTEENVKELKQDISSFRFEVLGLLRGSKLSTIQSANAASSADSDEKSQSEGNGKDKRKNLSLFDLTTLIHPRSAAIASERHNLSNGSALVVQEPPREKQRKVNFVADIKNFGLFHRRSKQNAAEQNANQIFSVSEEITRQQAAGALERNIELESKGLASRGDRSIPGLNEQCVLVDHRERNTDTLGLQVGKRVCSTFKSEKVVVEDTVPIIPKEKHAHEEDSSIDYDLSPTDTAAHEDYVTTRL
# [6] = Trypanosoma cruzi growth suppression in host cells – NIH3T3 host cells, beta-gal luminescence, confirmation (AID 2044); type: functional, cell-based;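 also: intracellular parasites grown in NIH/3T3 mouse fibroblasts as host cells; luminescent beta-galactosidase reporter signal from transgenic T. cruzi replicating inside host cells; inhibitors lower the luminescence signal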
# [7] = loss of viability in HepG2 cells – cell-based, CellTiter-Glo, cherry-picked, cytotoxicity control for Shn3 inhibitor project, dose response (AID 624134); type: functional
# [8] = system: Streptococcus sp. 'group A'; test: Streptococcus pyogenes SK(-)GAS viability under kanamycin – luminescence, BacTiterGlo, confirmation, counter-screen for streptokinase expression inhibitor project, dose response (AID 1900); type: functional, organism-based
# [9] = reduction of Shn3 3'UTR-driven luciferase in osteoblasts – cell-based, Clone20 osteoblasts, firefly luciferase, cherry-picked, dose response (AID 624132); type: functional;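 also: firefly luciferase luminescence from reporter carrying the Shn3 3'UTR in osteoblasts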
# [10] = non-specific 3'UTR reporter inhibition in Clone20-Shn3RL – cell-based, Renilla luciferase, cherry-picked, counter-screen for Shn3 inhibitor project, dose response (AID 624133); type: functional
# Streptococcus = test: GAS UMAA2166 growth inhibition – luminescence, BacTiterGlo, counter-screen for streptokinase expression inhibitor project, dose response (AID 1915); type: functional, organism-based;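 also: potency for reduction of bacterial viability or growth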
# INS1 = test: INS-1E survival protection against cytokine death – cell-based, luminescence, retest, dose response (AID 449756); type: functional; settings: Rattus norvegicus;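 also: cell death triggered by IL-1 beta plus TNF-alpha plus IFN-gamma mixture; protective hits raise ATP signal compared with cytokine alone wells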
# [11] = target: T4, Rac GTPase-activating protein 1 (Homo sapiens, UniProt Q9H0H5); test: blockers of MgcRacGAP-driven Rac1 GTP hydrolysis – biochemical, ADP Hunter fluorescence, primary and confirmatory, confirmation (AID 624330); type: functional
# T4 sequence (Q9H0H5 whole entry): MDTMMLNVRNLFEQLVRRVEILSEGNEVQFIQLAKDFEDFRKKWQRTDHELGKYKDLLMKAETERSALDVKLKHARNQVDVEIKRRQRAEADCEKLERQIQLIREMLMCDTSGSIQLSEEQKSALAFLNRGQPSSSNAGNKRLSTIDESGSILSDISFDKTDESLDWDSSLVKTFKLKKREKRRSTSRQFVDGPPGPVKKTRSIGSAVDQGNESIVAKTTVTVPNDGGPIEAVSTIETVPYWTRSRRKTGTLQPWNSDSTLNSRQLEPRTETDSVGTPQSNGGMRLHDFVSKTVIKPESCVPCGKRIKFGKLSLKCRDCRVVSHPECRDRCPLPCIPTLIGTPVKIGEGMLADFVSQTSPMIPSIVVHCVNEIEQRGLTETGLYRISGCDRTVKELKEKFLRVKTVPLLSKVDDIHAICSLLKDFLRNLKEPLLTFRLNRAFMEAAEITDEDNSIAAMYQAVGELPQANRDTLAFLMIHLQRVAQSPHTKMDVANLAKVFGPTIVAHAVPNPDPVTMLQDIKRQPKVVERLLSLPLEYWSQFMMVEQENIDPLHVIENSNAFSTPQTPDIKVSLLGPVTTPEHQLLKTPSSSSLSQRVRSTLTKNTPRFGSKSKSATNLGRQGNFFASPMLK
# Large T antigen = Large T antigen (Simian virus 40, UniProt P03070); type: functional, Betapolyomavirus macacae;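 also: Confirmatory-stage PubChem screen for compounds that inhibit SV40 T antigen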
# [12] = target: Induced myeloid leukemia cell differentiation protein Mcl-1 (Homo sapiens, UniProt Q07820); type: functional
# [13] = P. falciparum Dd2 growth inhibitors, dose response, SYBR Green, cherry-picked samples (AID 1159567); type: functional, cell-based
# [14] = Luminescence Cell-Based Dose Confirmation HTS to Identify Inhibitors of Platelet Dense Granule Release. [Related pubchem assays: 1663 (Primary HTS), 1678 (Summary of Project)]; type: functional
# [15] = NIH-3T3 fibroblast cytotoxicity, dose response, cytotoxicity control, cell-based, fluorescence, Alamar Blue, secondary assay (AID 2327); type: functional;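 also: NIH-3T3 mouse fibroblasts cultured with fluconazole at 8 µg/mL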
# [16] = target: Luciferin 4-monooxygenase (Photinus pyralis, UniProt P08659); test: inhibition of purified Photinus pyralis luciferase – biochemical, luminescence, dose response (AID 1891)
# Cytochrome P450 2C19 = Cytochrome P450 2C19 (Homo sapiens, UniProt P33261); test: Cytochrome panel assay with activity outcomes. Panel member name: p450-cyp2c19 Compounds with AC50 equal or less than 10 uM are considered active; type: functional; settings: read-out: AC50
# Protein skinhead-1 = target: T5, Protein skinhead-1 (Caenorhabditis elegans, UniProt P34707); type: functional
# T5 sequence (P34707 whole entry): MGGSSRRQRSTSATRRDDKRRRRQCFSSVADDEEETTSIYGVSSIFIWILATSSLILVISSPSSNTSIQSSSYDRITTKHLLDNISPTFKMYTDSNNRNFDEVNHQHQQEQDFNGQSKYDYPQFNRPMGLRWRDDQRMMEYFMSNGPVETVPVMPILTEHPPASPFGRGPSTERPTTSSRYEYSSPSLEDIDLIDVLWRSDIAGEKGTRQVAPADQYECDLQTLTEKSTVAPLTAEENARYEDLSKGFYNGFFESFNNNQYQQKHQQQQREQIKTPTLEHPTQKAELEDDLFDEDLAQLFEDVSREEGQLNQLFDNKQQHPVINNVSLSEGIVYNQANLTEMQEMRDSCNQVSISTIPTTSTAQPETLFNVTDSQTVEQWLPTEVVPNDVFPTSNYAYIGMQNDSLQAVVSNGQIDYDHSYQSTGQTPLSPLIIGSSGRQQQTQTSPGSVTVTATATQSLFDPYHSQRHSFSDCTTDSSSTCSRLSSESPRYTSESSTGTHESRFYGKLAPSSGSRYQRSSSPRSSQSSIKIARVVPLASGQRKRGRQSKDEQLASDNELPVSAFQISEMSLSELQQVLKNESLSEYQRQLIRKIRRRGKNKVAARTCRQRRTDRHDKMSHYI
# Paired box protein Pax-8 = Paired box protein Pax-8 (Homo sapiens, UniProt Q06710); test: PAX8 transcriptional activity inhibition in RMG-I – RMG-I cells, luciferase, cherry-pick, dose response (AID 687027); type: functional, cell-based;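 also: luciferase reporter driven by Pax8 target thyroperoxidase promoter measured by SteadyGlo luminescence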
# Paired box protein Pax-8, sequence (Q06710 whole entry): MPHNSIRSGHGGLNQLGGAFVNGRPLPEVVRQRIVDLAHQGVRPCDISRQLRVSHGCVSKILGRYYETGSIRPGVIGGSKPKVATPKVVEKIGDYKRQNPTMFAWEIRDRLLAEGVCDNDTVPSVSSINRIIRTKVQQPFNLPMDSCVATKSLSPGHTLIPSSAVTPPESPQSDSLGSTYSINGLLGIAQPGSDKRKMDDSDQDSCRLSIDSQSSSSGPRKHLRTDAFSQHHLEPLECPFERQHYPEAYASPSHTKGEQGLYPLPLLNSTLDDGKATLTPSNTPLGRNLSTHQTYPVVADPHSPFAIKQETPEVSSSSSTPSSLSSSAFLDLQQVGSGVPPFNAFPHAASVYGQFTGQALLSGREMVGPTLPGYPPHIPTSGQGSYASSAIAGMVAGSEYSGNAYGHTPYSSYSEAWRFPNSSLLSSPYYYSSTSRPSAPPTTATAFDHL
# Large T antigen, sequence (P03070 whole entry): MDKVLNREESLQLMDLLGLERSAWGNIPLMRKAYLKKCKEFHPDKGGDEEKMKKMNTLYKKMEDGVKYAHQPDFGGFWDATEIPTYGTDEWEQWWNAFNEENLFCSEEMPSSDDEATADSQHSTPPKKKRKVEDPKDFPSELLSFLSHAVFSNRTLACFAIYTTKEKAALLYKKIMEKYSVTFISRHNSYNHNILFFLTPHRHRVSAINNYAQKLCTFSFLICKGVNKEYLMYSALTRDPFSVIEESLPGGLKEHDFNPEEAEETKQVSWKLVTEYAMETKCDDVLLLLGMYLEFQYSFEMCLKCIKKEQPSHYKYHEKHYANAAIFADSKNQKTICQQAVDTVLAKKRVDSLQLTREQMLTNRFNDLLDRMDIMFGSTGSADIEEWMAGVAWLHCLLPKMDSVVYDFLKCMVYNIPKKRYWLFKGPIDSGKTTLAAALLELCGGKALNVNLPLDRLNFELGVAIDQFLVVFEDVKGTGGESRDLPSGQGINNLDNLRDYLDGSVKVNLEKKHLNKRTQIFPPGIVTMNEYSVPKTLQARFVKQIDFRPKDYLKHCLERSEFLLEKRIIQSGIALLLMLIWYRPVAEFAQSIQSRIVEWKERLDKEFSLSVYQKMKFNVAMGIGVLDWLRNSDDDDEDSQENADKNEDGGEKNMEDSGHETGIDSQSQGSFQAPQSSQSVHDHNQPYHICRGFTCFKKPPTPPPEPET
# T1 sequence (P49327 whole entry): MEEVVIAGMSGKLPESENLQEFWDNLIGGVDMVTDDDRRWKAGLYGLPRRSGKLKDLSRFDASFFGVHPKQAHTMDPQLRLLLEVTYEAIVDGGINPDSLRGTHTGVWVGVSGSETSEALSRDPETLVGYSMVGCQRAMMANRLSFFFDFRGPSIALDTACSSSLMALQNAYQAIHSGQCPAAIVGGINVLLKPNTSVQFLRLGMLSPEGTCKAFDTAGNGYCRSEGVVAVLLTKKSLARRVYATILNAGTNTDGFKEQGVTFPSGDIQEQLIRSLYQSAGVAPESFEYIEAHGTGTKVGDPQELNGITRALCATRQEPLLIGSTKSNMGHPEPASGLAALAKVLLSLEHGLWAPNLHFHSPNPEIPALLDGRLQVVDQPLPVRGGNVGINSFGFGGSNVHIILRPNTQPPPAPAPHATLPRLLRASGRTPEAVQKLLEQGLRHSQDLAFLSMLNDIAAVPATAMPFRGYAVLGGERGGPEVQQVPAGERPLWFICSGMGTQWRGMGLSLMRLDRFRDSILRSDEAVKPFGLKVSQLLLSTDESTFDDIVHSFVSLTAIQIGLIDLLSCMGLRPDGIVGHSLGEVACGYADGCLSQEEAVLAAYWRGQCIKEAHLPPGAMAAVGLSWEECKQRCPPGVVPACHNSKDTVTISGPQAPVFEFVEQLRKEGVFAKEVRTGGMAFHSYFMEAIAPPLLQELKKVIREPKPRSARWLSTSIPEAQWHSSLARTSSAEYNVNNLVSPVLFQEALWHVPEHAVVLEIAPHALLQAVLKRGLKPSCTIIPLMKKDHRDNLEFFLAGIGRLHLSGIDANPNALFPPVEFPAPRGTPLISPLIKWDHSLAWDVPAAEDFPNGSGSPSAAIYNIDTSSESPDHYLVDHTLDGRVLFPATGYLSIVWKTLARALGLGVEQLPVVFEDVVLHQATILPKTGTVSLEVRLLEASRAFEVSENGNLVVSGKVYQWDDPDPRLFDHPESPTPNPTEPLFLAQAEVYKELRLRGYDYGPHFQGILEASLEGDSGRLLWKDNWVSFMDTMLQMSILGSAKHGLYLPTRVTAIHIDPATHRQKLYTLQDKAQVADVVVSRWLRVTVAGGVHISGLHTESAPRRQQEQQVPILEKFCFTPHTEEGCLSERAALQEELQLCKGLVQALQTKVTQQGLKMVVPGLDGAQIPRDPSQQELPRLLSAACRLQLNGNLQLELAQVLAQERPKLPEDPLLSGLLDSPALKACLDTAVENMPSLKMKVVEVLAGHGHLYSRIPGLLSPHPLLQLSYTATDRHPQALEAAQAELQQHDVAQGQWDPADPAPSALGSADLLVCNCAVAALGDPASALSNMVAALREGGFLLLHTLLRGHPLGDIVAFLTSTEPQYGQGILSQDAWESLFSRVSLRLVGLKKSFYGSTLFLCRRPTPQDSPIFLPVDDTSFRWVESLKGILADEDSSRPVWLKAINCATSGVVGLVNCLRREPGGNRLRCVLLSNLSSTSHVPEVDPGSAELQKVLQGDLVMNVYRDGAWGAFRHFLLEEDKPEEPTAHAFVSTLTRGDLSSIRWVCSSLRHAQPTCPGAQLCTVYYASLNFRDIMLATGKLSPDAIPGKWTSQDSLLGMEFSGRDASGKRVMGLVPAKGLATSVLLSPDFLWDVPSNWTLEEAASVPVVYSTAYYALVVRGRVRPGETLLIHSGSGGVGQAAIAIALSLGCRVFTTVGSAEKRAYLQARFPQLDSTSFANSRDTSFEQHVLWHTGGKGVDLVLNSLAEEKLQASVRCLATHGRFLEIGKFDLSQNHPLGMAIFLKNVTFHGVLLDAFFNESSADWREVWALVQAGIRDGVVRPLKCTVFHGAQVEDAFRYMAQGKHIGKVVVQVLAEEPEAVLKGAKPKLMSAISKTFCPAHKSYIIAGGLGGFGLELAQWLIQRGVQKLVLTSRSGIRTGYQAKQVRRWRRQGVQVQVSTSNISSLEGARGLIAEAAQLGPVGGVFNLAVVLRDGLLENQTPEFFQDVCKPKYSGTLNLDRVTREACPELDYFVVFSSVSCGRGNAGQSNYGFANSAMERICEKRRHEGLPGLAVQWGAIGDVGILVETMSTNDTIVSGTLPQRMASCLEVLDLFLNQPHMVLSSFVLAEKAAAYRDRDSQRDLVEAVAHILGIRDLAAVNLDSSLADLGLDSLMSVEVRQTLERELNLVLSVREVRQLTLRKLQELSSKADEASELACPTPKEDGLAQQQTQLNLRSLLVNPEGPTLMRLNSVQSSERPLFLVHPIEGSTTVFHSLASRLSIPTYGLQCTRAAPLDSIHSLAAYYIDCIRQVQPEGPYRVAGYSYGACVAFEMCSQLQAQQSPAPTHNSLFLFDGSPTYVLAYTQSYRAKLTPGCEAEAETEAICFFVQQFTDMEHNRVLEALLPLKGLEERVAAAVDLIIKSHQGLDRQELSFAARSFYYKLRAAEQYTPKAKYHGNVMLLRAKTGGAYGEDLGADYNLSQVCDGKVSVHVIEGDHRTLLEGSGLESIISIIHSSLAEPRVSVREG
# Induced myeloid leukemia cell differentiation protein Mcl-1, sequence (Q07820 whole entry): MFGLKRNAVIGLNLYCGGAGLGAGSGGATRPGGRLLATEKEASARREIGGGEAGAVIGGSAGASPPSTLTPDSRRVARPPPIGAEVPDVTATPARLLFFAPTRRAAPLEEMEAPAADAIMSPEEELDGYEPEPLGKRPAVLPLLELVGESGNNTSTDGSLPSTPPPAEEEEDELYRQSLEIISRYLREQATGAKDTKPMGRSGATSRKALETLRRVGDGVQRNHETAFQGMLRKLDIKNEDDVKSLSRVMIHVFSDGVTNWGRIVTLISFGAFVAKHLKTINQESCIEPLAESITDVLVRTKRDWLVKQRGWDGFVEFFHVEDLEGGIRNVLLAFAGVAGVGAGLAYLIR
# Cytochrome P450 2C19, sequence (P33261 whole entry): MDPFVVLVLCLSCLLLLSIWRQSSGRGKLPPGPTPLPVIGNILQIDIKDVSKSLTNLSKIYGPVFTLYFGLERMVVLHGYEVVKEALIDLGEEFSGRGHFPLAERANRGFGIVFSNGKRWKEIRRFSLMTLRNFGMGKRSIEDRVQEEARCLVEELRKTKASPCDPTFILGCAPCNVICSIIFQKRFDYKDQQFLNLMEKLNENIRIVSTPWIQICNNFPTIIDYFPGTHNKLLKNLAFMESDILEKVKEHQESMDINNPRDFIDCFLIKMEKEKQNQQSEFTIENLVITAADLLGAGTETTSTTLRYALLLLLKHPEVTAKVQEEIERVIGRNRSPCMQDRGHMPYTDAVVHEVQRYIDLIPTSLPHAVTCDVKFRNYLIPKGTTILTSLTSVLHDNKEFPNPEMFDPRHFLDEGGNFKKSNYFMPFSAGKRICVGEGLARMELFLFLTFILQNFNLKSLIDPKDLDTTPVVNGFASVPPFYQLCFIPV
# Luciferin 4-monooxygenase, sequence (P08659 whole entry): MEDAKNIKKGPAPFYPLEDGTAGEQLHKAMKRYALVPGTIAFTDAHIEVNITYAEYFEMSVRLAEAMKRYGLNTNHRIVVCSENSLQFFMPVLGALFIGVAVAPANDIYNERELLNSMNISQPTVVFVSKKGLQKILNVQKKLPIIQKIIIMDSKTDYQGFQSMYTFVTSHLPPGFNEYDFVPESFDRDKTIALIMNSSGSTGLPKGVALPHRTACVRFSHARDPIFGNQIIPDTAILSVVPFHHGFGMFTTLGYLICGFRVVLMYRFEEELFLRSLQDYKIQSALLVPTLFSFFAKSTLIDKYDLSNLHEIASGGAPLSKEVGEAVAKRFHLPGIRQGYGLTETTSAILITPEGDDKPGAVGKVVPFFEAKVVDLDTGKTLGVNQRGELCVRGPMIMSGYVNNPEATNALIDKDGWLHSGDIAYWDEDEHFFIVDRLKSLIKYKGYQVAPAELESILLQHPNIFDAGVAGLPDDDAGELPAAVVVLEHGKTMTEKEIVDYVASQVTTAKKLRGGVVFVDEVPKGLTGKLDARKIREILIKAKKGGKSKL
smiles,measurement,setting,value
CC1(C)CC(=O)C=C(c2ccc(-c3cnn(Cc4ccccc4)c3)cc2)C1=O,IC50,Fatty acid synthase [1],8.05 µM (active)
same,IC50,Fatty acid synthase [2],8.34 µM (active)
Cc1c(C(=O)OCCOc2ccc(Br)cc2)sc(=S)n1C,IC50,Fatty acid synthase [1],5.67 µM (active)
same,IC50,Fatty acid synthase [2],7.07 µM (active)
O=C(Nc1ccccc1N1CCN(C(=O)c2ccc(Cl)cc2)CC1)c1cccc([N+](=O)[O-])c1,EC50,[3],> 260 µM (inactive)
same,EC50,[4],> 60 µM (not active)
same,EC50,[5],0.376 µM (active)
same,EC50,[6],1.34 µM (active)
C[C@@]12C(=O)Nc3cc(F)ccc3C(=O)N1[C@H]1c3ccccc3OC[C@@H]1[C@@H]2c1ccccc1,IC50,Fatty acid synthase [1],20.3 µM (inactive)
same,IC50,Fatty acid synthase [2],18.1 µM (active)
O=C(Nc1cccc(C(=O)O)c1)/C(=C/c1cccc([N+](=O)[O-])c1)NC(=O)c1cccc(Br)c1,IC50,Fatty acid synthase [1],13.2 µM (active)
same,IC50,Fatty acid synthase [2],19.4 µM (active)
COc1cccc(-n2c(CN3CCN(c4ccccc4)CC3)nc3ccc([N+](=O)[O-])cc3c2=O)c1,IC50,Fatty acid synthase [1],7.99 µM (active)
same,IC50,Fatty acid synthase [2],4.81 µM (active)
Cc1ccc(C(=O)C2=C(O)C(=O)N(Cc3cccnc3)C2c2ccc(Cl)c(Cl)c2)o1 (stereo not given),EC50,[5],6.68 µM (active)
CC(C)Cc1cc(CN2CCCC(CO)(Cc3cccc(Cl)c3)C2)[nH]n1 (stereo not given),EC50,[5],2.11 µM (active)
COc1ccccc1C(NC(C)=O)c1cc(Cl)c2cccnc2c1O (stereo not given),AC50,[7],2.3 µM (active)
same,EC50,[8],2.9 µM (active)
same,EC50,[4],2.85 µM (active)
same,EC50,[6],0.647 µM (active)
same,AC50,[9],2.56 µM (active)
same,AC50,[10],1.27 µM (active)
same,EC50,Streptococcus,2.95 µM (active)
same,AC50,INS1,1.38 µM (active)
CCn1nc(C)c(CN2CCCC(CO)(Cc3cccc(Cl)c3)C2)c1C (stereo not given),EC50,[4],> 30 µM (not active)
same,EC50,[5],1.06 µM (active)
same,EC50,[6],0.247 µM (active)
O=C1CCCC(O)=C1/C=N/c1ccc(O)cc1,IC50,[11],16.7 µM (active)
same,IC50,Large T antigen,12.3 µM (active)
O=S(=O)(c1ccc(NC(=S)N2CCN(c3ccc(O)cc3)CC2)cc1)N1CCOCC1,IC50,Large T antigen,9.69 µM (active)
Cc1ccc(C(=O)Nc2ccc(N3CCCC3)cc2)c(C)c1,IC50,[12],7.06 µM (not active)
C/C=C/c1ccc([C@H]2[C@H](CO)N(S(=O)(=O)Cc3ccccc3)C23CN(C(=O)C2CCCC2)C3)cc1,AC50,[13],5.3 µM (active)
CN(C)c1ccc(C(=O)c2ccc(N(C)C)c(N)c2)cc1N,IC50,Large T antigen,19.3 µM (active)
Cc1ccc(N/N=C/c2ccc3c(c2)OCCO3)cc1Cl,EC50,[14],21 µM (active)
same,EC50,[15],40.1 µM (active)
same,EC50,[16],> 112 µM (not active)
CC/C(=N\c1ccccc1O)C1=C(O)CC(c2ccccc2)CC1=O (stereo not given),IC50,Large T antigen,15.2 µM (active)
COc1ccc(C#Cc2ccc3c(c2)[C@@H]2[C@@H](CCN2C(=O)C2CCC2)[C@H](CO)N3)cc1,AC50,[13],5.78 µM (active)
Cc1cccc(NC(=O)CN2C(=O)N/C(=C/c3ccc(C)o3)C2=O)c1,IC50,[12],< 0.4 µM (not active)
COc1ccc(S(=O)(=O)N(C)C[C@H]2Oc3ncc(-c4ccncc4)cc3C(=O)N([C@H](C)CO)C[C@@H]2C)cc1,AC50,[13],6.55 µM (active)
COc1ccccc1C(=O)N=Nc1c(O)[nH]c2ccc([N+](=O)[O-])cc12,IC50,[12],2.92 µM (active)
CCCCCc1nc2c(O)nc3ccccc3c2o1,AC50,Cytochrome P450 2C19,3.98 µM (inconclusive)
same,IC50,[12],28.3 µM (not active)
COc1ccc2c3c([nH]c2c1)[C@@H](CO)N(C(=O)Nc1cccc(F)c1)CC31CN(CC2CCOCC2)C1,AC50,[13],4.22 µM (active)
CCCc1nc(SC2CCCC2)c2c(=O)n(C)c(=O)n(C)c2n1,EC50,[5],4.73 µM (active)
Cn1cccc1/C=N/N1CCN(Cc2ccccc2)CC1,IC50,Large T antigen,17.6 µM (active)
CC1CCN(C(C)C(=O)Nc2ccccc2-c2ccccc2)CC1 (stereo not given),IC50,Protein skinhead-1,> 100 µM (inactive)
same,EC50,[5],5.31 µM (active)
CCc1ccc(CNC(=O)C2CCCN(c3nnc(C)c4c(C)n(-c5ccccc5)nc34)C2)cc1 (stereo not given),EC50,[15],14.7 µM (inconclusive)
same,AC50,Paired box protein Pax-8,9.17 µM (active)
